Assay results reported in PubChem BioAssay (NCI).
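Method: 48-hour compound exposure of cells in 96-well plates, five concentrations, linear interpolation of endpoints. GI50 marks 50% less growth. TGI denotes the concentration required for complete inhibition of growth.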

Columns and labels:
Assay in all cases: NCI anticancer screen, dose series, 48 h
BT-549 breast = system: BT-549 breast
SW-620 colon = system: SW-620 colon
K-562 leukemia = system: K-562 leukemia
MCF7 breast = system: MCF7 breast
RPMI-8226 leukemia = system: RPMI-8226 leukemia
SK-OV-3 ovarian = system: SK-OV-3 ovarian
NCI-H460 lung = system: NCI-H460 lung
NCI/ADR-RES ovarian = system: NCI/ADR-RES ovarian
NCI-H23 lung = system: NCI-H23 lung
SK-MEL-2 melanoma = system: SK-MEL-2 melanoma
MOLT-4 leukemia = system: MOLT-4 leukemia
SR leukemia = system: SR leukemia
UO-31 renal = system: UO-31 renal
IGROV1 ovarian = system: IGROV1 ovarian
HL-60(TB) leukemia = system: HL-60(TB) leukemia
DU-145 prostate = system: DU-145 prostate
OVCAR-5 ovarian = system: OVCAR-5 ovarian
NCI-H522 lung = system: NCI-H522 lung
SK-MEL-5 melanoma = system: SK-MEL-5 melanoma
OVCAR-4 ovarian = system: OVCAR-4 ovarian
TK-10 renal = system: TK-10 renal
NCI-H226 lung = system: NCI-H226 lung
UACC-62 melanoma = system: UACC-62 melanoma
OVCAR-8 ovarian = system: OVCAR-8 ovarian
786-0 renal = system: 786-0 renal
SNB-19 CNS = system: SNB-19 CNS
HS 578T breast = system: HS 578T breast
SF-268 CNS = system: SF-268 CNS
A498 renal = system: A498 renal
SF-539 CNS = system: SF-539 CNS
HCC-2998 colon = system: HCC-2998 colon
MDA-MB-231 breast = system: MDA-MB-231 breast
SK-MEL-28 melanoma = system: SK-MEL-28 melanoma
SN12C renal = system: SN12C renal
PC-3 prostate = system: PC-3 prostate
LOX IMVI melanoma = system: LOX IMVI melanoma
KM12 colon = system: KM12 colon
A549 NSCLC = system: A549 NSCLC
RXF 393 renal = system: RXF 393 renal
U251 CNS = system: U251 CNS
HOP-92 NSCLC = system: HOP-92 NSCLC
SNB-75 CNS = system: SNB-75 CNS
HCT-116 colon = system: HCT-116 colon
UACC-257 melanoma = system: UACC-257 melanoma
CCRF-CEM leukemia = system: CCRF-CEM leukemia
ACHN renal = system: ACHN renal
MALME-3M melanoma = system: MALME-3M melanoma
T-47D breast = system: T-47D breast
HOP-62 NSCLC = system: HOP-62 NSCLC
HT29 colon = system: HT29 colon
HCT-15 colon = system: HCT-15 colon
SF-295 CNS = system: SF-295 CNS
CAKI-1 renal = system: CAKI-1 renal

**Q.** Which results are given for `COc1ccc2c(=O)cc(C(Cl)(Cl)Cl)oc2c1`?
**A.** GI50 (BT-549 breast): 0.336 µM; TGI (BT-549 breast): 10.6 µM; GI50 (SW-620 colon): 0.237 µM; TGI (SW-620 colon): 14.5 µM; GI50 (K-562 leukemia): 0.0525 µM; TGI (K-562 leukemia): > 100 µM; GI50 (MCF7 breast): 0.262 µM; TGI (MCF7 breast): 14.6 µM; GI50 (RPMI-8226 leukemia): 0.389 µM; TGI (RPMI-8226 leukemia): 3.82 µM; GI50 (SK-OV-3 ovarian): 0.511 µM; TGI (SK-OV-3 ovarian): 31.5 µM; GI50 (NCI-H460 lung): 0.364 µM; TGI (NCI-H460 lung): 8.63 µM; GI50 (NCI/ADR-RES ovarian): 0.296 µM; TGI (NCI/ADR-RES ovarian): 14.2 µM; GI50 (NCI-H23 lung): 0.409 µM; TGI (NCI-H23 lung): 19.3 µM; GI50 (SK-MEL-2 melanoma): 0.488 µM; TGI (SK-MEL-2 melanoma): 26.4 µM; GI50 (MOLT-4 leukemia): 0.302 µM; TGI (MOLT-4 leukemia): 4.44 µM; GI50 (SR leukemia): 0.058 µM; TGI (SR leukemia): 91.5 µM; GI50 (UO-31 renal): 0.637 µM; TGI (UO-31 renal): 15.7 µM; GI50 (IGROV1 ovarian): 0.633 µM; TGI (IGROV1 ovarian): 21.3 µM; GI50 (HL-60(TB) leukemia): 0.269 µM; TGI (HL-60(TB) leukemia): 0.836 µM; GI50 (DU-145 prostate): 0.309 µM; TGI (DU-145 prostate): 0.971 µM; GI50 (OVCAR-5 ovarian): 0.385 µM; TGI (OVCAR-5 ovarian): 15.8 µM; GI50 (NCI-H522 lung): 0.228 µM; TGI (NCI-H522 lung): 0.683 µM; GI50 (SK-MEL-5 melanoma): 0.278 µM; TGI (SK-MEL-5 melanoma): 0.833 µM; GI50 (OVCAR-4 ovarian): 0.423 µM; TGI (OVCAR-4 ovarian): 30.7 µM; GI50 (TK-10 renal): 8.36 µM; TGI (TK-10 renal): 40.4 µM; GI50 (NCI-H226 lung): 14.8 µM; TGI (NCI-H226 lung): 35.8 µM; GI50 (UACC-62 melanoma): 0.438 µM; TGI (UACC-62 melanoma): 17.5 µM; GI50 (OVCAR-8 ovarian): 0.338 µM; TGI (OVCAR-8 ovarian): 10.4 µM; GI50 (786-0 renal): 0.324 µM; TGI (786-0 renal): 14.1 µM; GI50 (SNB-19 CNS): 3.77 µM; TGI (SNB-19 CNS): 48.1 µM; GI50 (HS 578T breast): 0.979 µM; TGI (HS 578T breast): 48.6 µM; GI50 (SF-268 CNS): 0.377 µM; TGI (SF-268 CNS): 15.6 µM; GI50 (A498 renal): 0.213 µM; TGI (A498 renal): 3.36 µM; GI50 (SF-539 CNS): 0.208 µM; TGI (SF-539 CNS): 0.583 µM; GI50 (HCC-2998 colon): 0.4 µM; TGI (HCC-2998 colon): 11.3 µM; GI50 (MDA-MB-231 breast): 0.333 µM; TGI (MDA-MB-231 breast): 14.9 µM; GI50 (SK-MEL-28 melanoma): 0.632 µM; TGI (SK-MEL-28 melanoma): 23.2 µM; GI50 (SN12C renal): 0.519 µM; TGI (SN12C renal): 11.9 µM; GI50 (PC-3 prostate): 0.39 µM; TGI (PC-3 prostate): 18.9 µM; GI50 (LOX IMVI melanoma): 0.173 µM; TGI (LOX IMVI melanoma): 5.03 µM; GI50 (KM12 colon): 0.32 µM; TGI (KM12 colon): 12.5 µM; GI50 (A549 NSCLC): 0.444 µM; TGI (A549 NSCLC): 15.5 µM; GI50 (RXF 393 renal): 0.676 µM; TGI (RXF 393 renal): 20.4 µM; GI50 (U251 CNS): 1.14 µM; TGI (U251 CNS): 11.1 µM; GI50 (HOP-92 NSCLC): 0.361 µM; TGI (HOP-92 NSCLC): 23.3 µM; GI50 (SNB-75 CNS): 0.327 µM; TGI (SNB-75 CNS): 15.1 µM; GI50 (HCT-116 colon): 0.299 µM; TGI (HCT-116 colon): 14.3 µM; GI50 (UACC-257 melanoma): 12 µM; TGI (UACC-257 melanoma): 41.6 µM; GI50 (CCRF-CEM leukemia): 0.309 µM; GI50 (ACHN renal): 0.412 µM; TGI (ACHN renal): 13.8 µM; GI50 (MALME-3M melanoma): 5.71 µM; TGI (MALME-3M melanoma): 35.6 µM; GI50 (T-47D breast): 12.2 µM; TGI (T-47D breast): 55.3 µM; GI50 (HOP-62 NSCLC): 1.04 µM; TGI (HOP-62 NSCLC): 27.6 µM; GI50 (HT29 colon): 0.345 µM; TGI (HT29 colon): 10.9 µM; GI50 (HCT-15 colon): 0.24 µM; TGI (HCT-15 colon): 14.2 µM; GI50 (SF-295 CNS): 1.27 µM; TGI (SF-295 CNS): 13 µM; GI50 (CAKI-1 renal): 0.376 µM; TGI (CAKI-1 renal): 14.6 µM
